Consider 15 compounds from patent publication US8889743B2 (priority 2007, dated 2014).

The test system of assay [1] is Ebola virus pseudotyped VSV particles. The format is cell-based.
Assay [2] concerns live Ebola virus (Zaire strain). The format is cell-based. The conditions noted are these: 10 days.
The test system of assay [3] is Venezuelan equine encephalitis virus (VEEV) pseudotyped VSV particles. The format is cell-based.
The subject of assay [4] is EBOV pseudotyped lentivirus. The experiment in a line: microbe, parasite or virus in culture. It counts as cell-based, EBOV Zaire strain.
The test system of assay [5] is Ebola virus GP pseudotype. The format is cell-based.
For the next assay, the system named is VSV GP pseudotype. It counts as cell-based, Vesicular stomatitis virus.
Assay [6] relates to retrovirus pseudotypes bearing Ebola virus env. It counts as cell-based.
The subject of assay [7] is retrovirus pseudotypes bearing eMLV (Fr-MLV) env. It counts as cell-based, ecotropic murine leukemia virus.
Assay [8] deals with wild type Ebola virus, Zaire strain. The format is cell-based. The note with it: 7 days.

Consider Methoxyverapamil, for which the “Ebola virus-like particle infection/entry, calmodulin inhibitors and L-channel blocking drugs” value in assay [1] was “highly effective”. For the same compound, the “infection of live Ebola Zaire virus (plaque numbers normalized to DMSO)” value in assay [2] is “inhibition of infection”.

Turning to `COCCOC(=O)C1=C(C)NC(C)=C(C(=O)OC(C)C)C1c1cccc([N+](=O)[O-])c1` (stereo not shown) [Nimodopine], the “Ebola virus-like particle infection/entry, calmodulin inhibitors and L-channel blocking drugs” value in [1] is given as “effective”.

Take `NCCCCCCNS(=O)(=O)c1cccc2c(Cl)cccc12` [W7]: in assay [1], the “Ebola virus-like particle infection/entry, calmodulin inhibitors and L-channel blocking drugs” value is given as “inhibited”. Moreover, the “Venezuelan equine encephalitis virus-like particle infection” value in assay [3] is “not”.

`O=c1cc(N2CCOCC2)oc2c(-c3ccccc3)cccc12` [LY294002]: in assay [4] (Zaire ebolavirus, HEK293, read-out: IC50 value for infection of EBOV pseudotyped lentivirus), the IC50 – broadly, the midpoint of a concentration-inhibition curve – was determined as 6.5 ± 1.1 µM.

In the case of `COc1ccc2cc1Oc1ccc(cc1)C[C@H]1c3cc(c(OC)cc3CCN1C)Oc1c(OC)c(OC)cc3c1[C@H](C2)N(C)CC3` [Tetrandine], the “infection by virus-like particles bearing Ebola virus env (GFP-expressing cells)” value in assay [1] was “potent and specific blockers”.

In the case of `Cl.N` [ammonium chloride], the “entry of Ebola virus GP pseudotype (luciferase activity), assay validation” value in assay [5] is “sensitive”.

As to `N#CC(=C(/N)Sc1ccccc1N)/C(C#N)=C(\N)Sc1ccccc1N` [U0126], the “entry of Ebola virus GP pseudotype (luciferase activity)” value in [5] is “not”.

With `CCN(CC)CCCC(C)Nc1nc(C)cc(Nc2ccc3nc(C)cc(N)c3c2)n1` (racemic) [Rac1 inhibitor], the “entry of VSV GP pseudotype (luciferase activity)” value in the assay on VSV GP pseudotype was “unaffected”. In assay [5], the “entry of Ebola virus GP pseudotype (luciferase activity)” value was “inhibits Ebola virus entry”.

Turning to `CC(COc1ccccc1)N(CCCl)Cc1ccccc1` (stereo not shown) [Phenoxybenzamine], the “Ebola virus-like particle infection/entry, calmodulin inhibitors and L-channel blocking drugs” value in [1] was “inhibited”. Moreover, the “Venezuelan equine encephalitis virus-like particle infection” value in assay [3] was “not”.

Take `COc1ccc([C@@H]2Sc3ccccc3N(CCN(C)C)C(=O)[C@@H]2OC(C)=O)cc1` [Diltiazem]: in [1], the “infection by virus-like particles bearing Ebola virus env (GFP-expressing cells)” value was “potent and specific blockers”.

Turning to `COc1ccc(S(=O)(=O)N(CCO)c2ccccc2CN(C)C/C=C/c2ccc(Cl)cc2)cc1` [KN-93], the “infection of the VSV core EBOV pseudotyped virus” value in [1] was “significantly impacted”. Also, the “infection with Ebola virus pseudotyped VSV particles” value in assay [1] (10 μM) is “specifically blocked infection”. Also, the “infection by retrovirus pseudotype bearing Ebola virus env (luciferase activity)” value in assay [6] is recorded as “strong effect”. The “infection by retrovirus pseudotype bearing eMLV env (luciferase activity)” value in assay [7] is listed as “blocking only the Ebola infection”.

As for `COc1ccc(CCN(C)CCCC(C#N)(c2ccc(OC)c(OC)c2)C(C)C)cc1OC` (stereo not shown) [Verapamil], in assay [1], the “Ebola virus-like particle infection/entry, calmodulin inhibitors and L-channel blocking drugs” value is given as “highly effective”. Also, the “Ebola virus induced cytopathic effect” value in [8] is recorded as “reduced or significantly prevented”.

As to `CN1CCN(CCCN2c3ccccc3Sc3ccc(C(F)(F)F)cc32)CC1` [Trifluorperazine], the “Ebola virus-like particle infection/entry, calmodulin inhibitors and L-channel blocking drugs” value in assay [1] is on record as “inhibited”. Besides, the “Venezuelan equine encephalitis virus-like particle infection” value in [3] is listed as “not”.

As to `COc1ccc(S(=O)(=O)Nc2ccccc2CN(C)C/C=C/c2ccc(Cl)cc2)cc1` [KN-92], the “infection of the VSV core EBOV pseudotyped virus” value in [1] is “not”. For the same compound, the “reduction in infection by the pseudotyped virus” value in assay [4] is listed as roughly 50%.

As to `CO/C1=C\C(C)=C\[C@@H](C)[C@@H](O)[C@@H](C)C/C(C)=C/C=C/[C@H](OC)[C@@H]([C@@H](C)[C@@H](O)[C@H](C)[C@@]2(O)C[C@@H](O)[C@H](C)[C@@H](C(C)C)O2)OC1=O` [bafilomycin A1], the “entry of Ebola virus GP pseudotype (luciferase activity), assay validation” value in assay [5] is “sensitive”.
